Data as given in article PMC5803267, “A small molecule inhibitor of Rheb selectively targets mTORC1 signaling” (Nature Communications, 2018).

Experiments:
[1] = Pharmacokinetic profile in mouse plasma; assay type: in vivo
Procedure: The selective inhibition of mTORC1 activation by NR1 in vitro and in cell-based systems prompted us to evaluate the effect of this compound on mTORC1 activity in vivo. […] In particular, the plasma concentration of NR1 was sustained over 5 µM for 2 h after IP administration of a 30 mg kg^−1 dose (Supplementary Fig. 10). We therefore carried out a pharmacodynamic (PD) study to evaluate the efficacy of NR1 at inhibiting mTORC1 signaling in vivo. In this experiment, mice were starved overnight to achieve a low basal level of mTORC1 activation (pre-dose). After a 16 h fast, the animals were treated with either vehicle or 30 mg kg^−1 NR1 and allowed to re-feed for 2 h before sacrifice and tissue collection. mTORC1 activity was measured by quantification of ^S240/244pS6 by Western blot analysis with a specific antibody. We chose kidney and gastrocnemius muscle as target tissues due to the relevance of mTORC1 in renal cell carcinoma[51] and angiomyolipomas in TSC and LAM[12] and for its important role in the regulation of protein synthesis and muscle mass[52]. The results are summarized in Fig. 6 for skeletal muscle and Supplementary Fig. 11 for kidney.
This study was conducted in accordance with the requirements for the humane care and use of animals set forth in the Animal Welfare Act, the IACUC Guide for the Care and Use of Laboratory Animals, applicable Shanghai and state laws, and regulations and policies of Shanghai ChemPartner Ltd. The animals were not randomized, and the study was not blinded. Male C57BL/6 mice (5 per treatment group, 6–7 weeks old) were fasted of food overnight for 16 hours. IP injection of compound dissolved in MC Tween (0.5% methyl cellulose and 0.1% Tween-80 in water) was given, and then the mice were allowed to feed again ad libitum until sacrifice. The animals were euthanized with CO2. Compound levels in the plasma of treated mice were measured by LC-MS/MS and compared to a standard curve of compound diluted into mouse plasma.
Supplementary Figure 10. Pharmacokinetic profile of NR1 in mouse plasma after a single 30
mg/Kg (body weight) intraperitoneal dose. The dotted line corresponds to 5 µM concentration. Error
bars represent standard deviation of the mean values for n=3 mice.

Jurkat cells = test: Cell size assay in Jurkat cells (forward scatter, flow cytometry); assay type: cell-based, human; conditions: 48 h incubation, dose-dependent
Procedure: Based on the dependence of cell size on mTORC1 activity, we assessed the effect of NR1 on the size of Jurkat cells, a human T cell line grown in suspension and responsive to mTORC1 inhibition.
Data are plotted as percent decrease in forward scatter. […] Error bars represent standard deviation of the mean of duplicates; graph represents data from one of two separate experiments
For the cell size assay, Jurkat Clone E-61 cells were plated in 96-well plates concurrent with compound. The cells were incubated at 37 °C and 5% CO2 for 48 h. PI stain (Invitrogen #727949) was added at a final concentration of 1 µg mL^−1, and cells were incubated for 15 min at room temperature. FACS analysis was performed; at least 10,000 events were collected for each sample. Viable cells (PI minus) were counted for FSC and SSC, and cell size (as measured by FSC) relative to the DMSO control was calculated.

Rheb = Rheb (Homo sapiens, UniProt Q15382); test: Affinity selection mass spectrometry (ASMS) Rheb binding; conditions: result in words
Excerpt: We used both Rheb binding and functional activity to guide the SAR optimization. Due to its high sensitivity and ability to detect weak binding ligands, STD NMR was initially used to measure Rheb binding. In addition to the benzimidazole of 1, we also explored the related indole scaffold, which allowed a wider range of functionalization. […] Therefore, we also used affinity selection mass spectrometry (ASMS) as a semi-quantitative measure of Rheb binding.

[2] = test system: T389pS6K1 (mTORC1) in PC3 cells; test: Chronic treatment of PC3 cells, T389pS6K1 Western blot; assay type: cell-based, human
Procedure: MCF-7 cells were serum-starved for 16 h and treated with compound for 90 min before cell lysis and Western blot analysis. For insulin-stimulated cells, 100 nM insulin was added 30 min before cell lysis. For EGF-stimulated cells, 100 ng mL^−1 EGF was added 10 min before cell lysis. c Rap1 activity was detected in lysates loaded in vitro with either GDP or GTPγS and treated with NR1 at the indicated concentrations. This was followed by a subsequent pulldown of GST-RalGDS-RBD. Bound Rap1 was detected by Western blot. d Evaluation of NR1 in a LAM patient-derived cell line (TRI102) under replete and serum-starved conditions. For replete conditions, TRI102 cells were treated for 90 min with compound in DMEM + 10% FBS. For serum-starved conditions, TRI102 cells were serum-starved 16 h and then treated for 90 min with compound prior to cell lysis and Western blot analysis. e HEK293 cells co-transfected with the indicated mTOR constructs and HA-GST-S6K1 were starved of amino acids or treated with NR1. To assess mTORC1 activity, an HA IP was performed and Western blots probed for ^T389pS6K1. f Chronic treatment of PC3 cells with NR1 to evaluate the inhibition of mTORC1 (using ^T389pS6K1) versus mTORC2 (using ^S473pAKT). PC3 cells were treated with compound under replete conditions for 24 h prior to cell lysis and Western blot analysis.
Accordingly, a hallmark of a selective mTORC1 inhibitor such as NR1 would be the lack of mTORC2 inhibition irrespective of the duration of treatment. PC3 cells are sensitive to mTORC2 inhibition with long-term rapamycin treatment. Indeed, upon treatment with rapamycin for 24 h, both ^T389pS6K1 and ^S473pAKT were lowered, indicating inhibitory effects on both mTORC1 and mTORC2, respectively.
For Western-based signaling assays, cells were treated for either 90 min or 2–24 h as indicated before lysis, normalization, and Western analysis. Cells were lysed in Triton lysis buffer: 1% Triton X-100, 50 mM HEPES pH 7.4, 100 mM NaCl, 2 mM EDTA, 10 mM β-glycerophosphate, 10 mM Na-pyrophosphate, protease inhibitor.

[3] = ip, mouse plasma, single 30 mg/Kg intraperitoneal dose

Rheb, sequence (Q15382 whole entry): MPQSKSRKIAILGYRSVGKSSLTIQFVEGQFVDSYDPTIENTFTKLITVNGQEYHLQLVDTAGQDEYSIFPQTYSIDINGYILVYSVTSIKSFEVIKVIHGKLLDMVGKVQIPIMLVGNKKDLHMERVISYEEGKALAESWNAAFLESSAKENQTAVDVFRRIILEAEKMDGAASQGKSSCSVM

Question: Which AUC(0-inf) [1, 3] does the source give for `CN(C)C(=O)c1ccc(Cn2c(C(=O)O)cc3c(Br)cc(Sc4ccc(Cl)c(Cl)c4)cc32)cc1` [NR1, 4-bromo-6-(3,4-dichlorophenylthio)-1-(4-(dimethylcarbamoyl)benzyl)-1H-indole-2-carboxylic acid] here?
Answer: 23500 ng·h/mL

Question: And the AUC(0-t) [1, 3]?
Answer: 23500 ng·h/mL

Question: And the Cmax [1, 3]?
Answer: 7800 ng/mL

Question: And the Tmax [1, 3]?
Answer: 0.25 h

Question: And the half-life ([1]; ip, mouse plasma, single 30 mg/Kg intraperitoneal dose, read-out: Terminal t1/2 (converted))?
Answer: 2.24 h

Question: And the “plasma concentration sustained for 2 h” value ([1]; mouse, IP, 30 mg kg^−1)?
Answer: over 5 µM

Question: And the “size of Jurkat cells” value (Jurkat cells)?
Answer: effectively reduced the size

Question: And the “Rheb binding by ASMS” value (Rheb)?
Answer: significant affinity

Question: And the “T389pS6K1 after 24 h treatment” value ([2]; PC3, replete, 24 h, NR1 30 µM, rapamycin 100 nM)?
Answer: potent inhibition

Question: And the “pS6K1 over time course” value ([2]; PC3, time points 2 h through 24 h)?
Answer: inhibits pS6K1
